Assays:
CB CD34+ cells = experiment: Reprogramming of cord blood CD34+ cells by EBNA1/OriP plasmids, TRA-1-60+ colonies at day 14; format: cell-based, human; conditions: NaB 0.25 mM, with either vector combination
Protocol: In the first set of 3 experiments, the pEB-C5 and pEB-Tg plasmids were used in comparison with the Thomson/Yu combination #6 containing 3 plasmids. After expansion (˜5-flod) with cytokines for 4 days, CB CD34+ cells were transfected once and then cultured following the standard protocol of deriving human iPSCs. […] Transfected cells were cultured for 2 more days before transferring onto 6 wells coated with MEF feeder cells. At day 3, the ESC culture medium was used in the presence or absence of NaB (0.25 mM) or VPA (0.5 mM). After day 9, the MEF-derived conditioned medium (CM) was used to substitute plain ESC medium. […] At day 14, cultures can be stained live with the TRA-1-60 antibody. TRA-1-60+ colonies with ESC-like morphology were picked after counting all the colonies.
After thawing, CD34+ cells were cultured for 4 to 5 days under a serum-free medium (SFM): containing 50% IMDM with 50% Ham's F12 (Invitrogen), ITS supplement (insulin-transferrin-selenium and 5 mg/ml BSA), synthetic lipids, 50 ug/ml of ascorbic acid and 2 mM glutamine (all from Sigma). […]
The cell culture plates with sizable ESC-like colonies were incubated in 37° C. for 1 hour before medium was changed to fresh ESC medium or CM. TRA-1-60 positive colonies were identified under an inverted fluorescence microscope, and can be picked up within 1 day after staining for further expansion and characterization.

CB MNCs = experiment: Reprogramming of cultured cord blood mononuclear cells by EBNA1/OriP plasmids; format: cell-based, human; conditions: added to pEB-C5
Protocol: After thawing, frozen MNCs from CB and PB) were cultured in the SFM supplemented with the following cytokines and a hormone: SCF (50 ng/ml), IL-3 (10 ng/ml), EPO (2U/ml, R&D Systems), IGF-1 (40 ng/ml) and dexamethasone (1 uM, Sigma). The media were replenished at day 3 and 6. By day 8-9 when an overt sign of cell division was observed, cells were harvested for nucleofection as well for various analyses. Approximately 3.5-fold cells were obtained for CB at day 8 and 1.5-fold for PB MNC at day 9. After optimizing nucleofection of the cultured MNCs to achieve maximal cell survival and gene transfer, the inventor settled down with the same Human CD34 Cell solution [Nucleofector Kit VPA-1003] but with 2×10^6 cultured cells. The transfected MNCs were cultured in the same medium for days and then further reprogrammed on MEF feeder cells as described above with cultured CD34+ cells. […]
TRA-1-60 Live Staining for identifying fully reprogrammed clones: TRA-1-60 antibody (mouse IgM, used as 1:300 of MAB4360, Millipore) and Alexa555-conjugated anti-mouse IgM secondary antibody (1:500, Invitrogen) were diluted in ESC medium and added into reprogramming cell culture plates. […] TRA-1-60 positive colonies were identified under an inverted fluorescence microscope, and can be picked up within 1 day after staining for further expansion and characterization.

With CCCC(=O)[O-].[Na+] [NaB, Sodium butyrate] the “effect on number (and percentages) of TRA-1-60+ colonies” value (CB CD34+ cells) was “consistently enhance” and the “stimulatory effect on reprogramming” value (CB MNCs) was “minimal”.

Reference: US20150139961A1, “Reprogramming Blood Cells to Pluripotent and Multipotent Stem Cells” (The Johns Hopkins University, priority 2009, published 2015)
